Earlier results in EP4512393A1, “COMBINATION OF SODIUM DICHLOROACETATE AND VALPROIC ACID SALTS FOR THE TREATMENT OF VIRAL AND BACTERIAL INFECTIONS AND INFLAMMATORY DISEASES” (Lietuvos sveikatos mokslu universitetas, priority 2023, dated 2025).

Tested on: leukocyte migration into the peritoneal cavity
Conditions: peritonitis-induced male rat model

For `CCCC(CCC)C(=O)O` [VPA, 2-n-propyl-pentanoic acid], the “inhibition of leukocyte migration into the peritoneal cavity” value is given as 92%.
